Converted amounts (≈) assume the structure as drawn. “Also recorded” adds a separate entry of the source. Read-outs that look alike come from different tables or passages of the source.
How the values were obtained:
[1] = test system: iNOS mRNA; experiment: iNOS mRNA expression in LPS-stimulated RAW cells (Northern blot); format: cell-based, murine; conditions: Mus musculus, normalized against β-actin; for inhibition at 20 µg/mL: 20 μg/mL; for inhibition at 40 µg/mL: 40 μg/mL; for inhibition at 80 µg/mL: 80 μg/mL
Procedure: Northern blot analysis of the iNOS MRNA expressed by the cells was then carried out to evaluate precisely the effect of iNOS expression in the presence of doxycycline and minocycline. The probes again were the iNOS and β-actin CDNA probes described above.
In this case, total RNA was isolated using TRI Reagent (MRC Inc., Cincinnati, Ohio). […] Briefly, 30 μg of RNA was subjected to electrophoresis in 1% agarose formaldehyde gel. The gel was then transferred via capillary action onto a nylon membrane (Zeta Probe, Bio-Rad Laboratories, Melville, N.Y.). The membrane was hybridized with [^32 P]-dCTP-labeled iNOS CDNA (4 kb SmaI fragment), a kind gift from Dr. James Cunningham (Harvard Medical School, Boston, Mass.). After hybridization, the blot was exposed to Kodak X-ray film (Kodak, Rochester, N.Y.) for 24-48 h with intensifying screens at -70° C. The β-actin probe was purchased from ClonTech (Palo Alto, Calif.) and probed as described above. Quantitation of the intensity of the iNOS/β-actin bands was performed using a phosphoimager (Molecular Dynamics, Sunnyvale, Calif.).

[2] = biological target: T1, iNOS (Mus musculus, UniProt P29477); experiment: direct effect on specific activity of iNOS in cell-free extracts (L-arginine-to-L-citrulline conversion); format: biochemical, murine; conditions: for effect on the specific activity of iNOS in cell-free extracts: 20-80 μg/mL, 15 min preincubation; for effect on an ongoing L-arginine-to-L-citrulline reaction catalyzed by iNOS: cell-free extracts
T1 construct: prepared cell-free extracts as a source of iNOS enzyme; (cells); host or cells: RAW 264.7 murine macrophages, LPS-stimulated
Procedure: To evaluate the direct effect of doxycycline and minocycline on iNOS activity, we induced RAW 264.7 cells with LPS for 16 h in the absence of these agents and prepared cell-free extracts as a source of iNOS enzyme in the L-arginine-to-L-citrulline conversion assay.
Separate aliquots of the enzyme-containing cell-free extracts were preincubated for 15 min with 20-80 μg/ mL doxycycline, 20-80 μg/mL minocycline, 1 mM N-acetylimidazole and 200 μM L-NMMA, respectively, before the enzyme reaction was initiated by adding the co-factors. Various modulators including methanol (MeOH), the carrier for NAI (N-acetylimidazole), were added 15 min prior to the addition of the co-factors to initiate the iNOS reaction, as described. The specific activity was calculated and percent inhibition was compare to the original LPS-stimulated extract; 100% specific activity was 200 pmol citrulline/min/mg protein. The data shown in FIG. 4 represent one of two similar experiments.

[3] = test system: iNOS in RAW 264.7 murine macrophage cells; experiment: nitrite accumulation in LPS-stimulated RAW 264.7 cells; format: cell-based; conditions: for IC50: Mus musculus
Procedure: RAW 264.7 murine macrophage cells (American Type Culture Collection, Rockville, Md.) were incubated with and without doxycycline or minocycline (5-80 μg/mL) for 1-2 h followed by activation through addition of 100 ng/mL of LPS (Sigma Chemical Co., St. Louis, Mo.) to induce iNOS (Stuehr et al. 1991). After 14-20 h of incubation, the medium was used to estimate nitrite accumulation by the modified Griess reaction (Gilliam et al. 1993). The values are represented as μM of nitrite accumulated at a given time interval; n=3. The statistics were derived using unpaired Student's t test. The data represent one of three similar experiments.

[4] = test system: β-actin; experiment: β-actin levels in LPS-activated RAW 264.7 cells (Western blot); format: cell-based, murine; conditions: 20-80 μg/mL
Procedure: (§1) RAW 264.7 cells were activated with 100 ng/mL LPS for 16-18 h, with and without doxycycline or minocycline (20-80 μg/mL) or with hydrocortisone (10 μM). Cell-free extracts were prepared as described above. The extract s were analyzed for 133 kD iNOS by Western blotting, using specific anti-iNOS antibodies.
(§2) Equal amounts of protein (25-50 μg) estimated by BCA reagent (Pierce, Rockford, Ill.) were loaded onto SDS-PAGE gels and stained to verify the concentrations of various protein fractions by examining the intensities of the protein bands on the gels. Western blot analysis was carried out from the same cell extracts. The Western-blotted membrane was probed with a specific anti-murine iNOS monoclonal antibody (Transduction Laboratories, Lexington, Ky.), as specified by the supplier. The same blot was also probed with an anti-actin antibody generously provided by Dr. James L. Lessard (Children's Hospital Medical Center, Cincinnati, Ohio). The blots were developed using the ECL Western blot system (Amersham, Arlington Heights, Ill.). Quantitation of the bands was performed using a densitometer from Molecular Dynamics (Sunnyvale, Calif.). FIG. 5 is representative.

[5] = test system: 133 kD iNOS; experiment: iNOS protein expression in LPS-activated RAW 264.7 cells (Western blot); format: cell-based, murine
Procedure: as §1, §2

[6] = test system: iNOS; experiment: iNOS activity (L-arginine-to-L-citrulline) in cell-free extracts of cells treated with modulator before LPS; format: cell-based, murine
Procedure: Murine macrophage cells (RAW 264.7) were incubated with 20-80 μg/mL doxycycline or minocycline, 10 μM hydrocortisone (Sigma Chemical Co., St. Louis, Mo.), or 75 μM L-NMMA for 1-2 h, followed by addition of LPS at 100 ng/mL and incubation for 16-18 h. Cell-free extracts were prepared at the end of each time period. Specific activity of iNOS was determined in the cell-free extracts by monitoring the conversion of L-[^3 H]-arginine to L-[^3 H]-citrulline as described by Amin et al. (1995b) and Vyas et al. (1996).
Cell-free extracts were prepared as follows: Following induction by incubation with LPS, the cells were pelleted at 4° C. and resuspended in Tris buffer (10 mM, pH 7.4) containing 10 μg/mL each chymostatin, antipain, leupeptin and pepstatin, 1 mM DTT and 1 mM PMSF. Cells were lysed in a Polytron PT 1200 homogenizer (Kinematica AG, Switzerland) after 3 cycles of rapid freeze-thawing. The lysate was centrifuged at 16,000 rpm for 60 min at 4° C., and the supernatants were used as cell-free extracts.
The protein in the extracts was measured by BCA assay reagent using BSA as standard (Smith et al. 1985). The reaction mixture for iNOS assay consists of Tris 50 mM (pH 7.8); BSA 1 mg/mL; DTT 1 mM; CaCl2, 2 mM; FAD 10 μM; BH4 10,μM; L-arginine 30 μM; NADPH 1 mM. The reaction mixture was spiked with 1μL (250 nM) of L-[^3 H]-arginine (Dupont NEN, Boston, Mass.) (1 mCi/mL=37.0 MBq/mL). After 20 min the assays were terminated by heating the reaction mixture at 90° C. for 5 min. Ten microiters (≈100,000 cpm) of the supernatant was spotted on activated AVICEL TLC plates (Analtech, Newark, Del.). The TLC plates were developed in a solvent system consisting of ethanol:water:ammonia (80:16:4). Quantitation of the spot for L-[^3 H]-citrulline was performed by a Bioscan System 200 Imaging Scanner.

Compound	inhibition at 20 µg/mL [1]	inhibition at 40 µg/mL [1]	inhibition at 80 µg/mL [1]	effect on the specific activity of iNOS in cell-free extracts [2]	effect on an ongoing L-arginine-to-L-citrulline reaction catalyzed by iNOS [2]	concentration at which inhibitory effects on iNOS expression (mRNA, specific activity and nitrite accumulation) reach a plateau [3]	IC50 ([3]; RAW264.7, 14 h)	IC50 ([3]; RAW264.7, 20 h)	effect on the levels of β-actin synthesis [4]	inhibition of iNOS protein expression ([5]; 20 μg/mL)	inhibition of iNOS protein expression ([5]; 40 μg/mL)	inhibition of iNOS protein expression ([5]; 80 μg/mL)	IC50 to inhibit iNOS activity in cell lysates [6]	inhibition of iNOS activity ([6]; 20 μg/mL)	inhibition of iNOS activity ([6]; 40 μg/mL)	inhibition of iNOS activity ([6]; 80 μg/mL)	IC50 ([3]; RAW264.7, 14 h of incubation, read-out: IC50)	IC50 ([3]; RAW264.7, 20 h of incubation, read-out: IC50)	concentration required to inhibit iNOS-mediated production of NO by >50% ([3]; compared to minocycline, 14 h and 20 h)
CN(C)c1ccc(O)c2c1C[C@H]1C[C@H]3[C@H](N(C)C)C(O)=C(C(N)=O)C(=O)[C@@]3(O)C(O)=C1C2=O [minocycline]	39%	49%	77%	minimal effect; also recorded: no significant effect	could not block	40 to 80 µg/mL	17 µg/mL (≈ 37.2 µM)	12 µg/mL (≈ 26.2 µM)	no significant effect	14%	49%	83%	20 to 30 µg/mL	45%	69%	69%	–	–	–
C[C@H]1c2cccc(O)c2C(O)=C2C(=O)[C@]3(O)C(O)=C(C(N)=O)C(=O)[C@@H](N(C)C)[C@@H]3[C@@H](O)[C@@H]21 [doxycycline]	68%	75%	79%	minimal effect; also recorded: no significant effect	could not block	40 to 80 µg/mL	–	–	no significant effect	11%	24%	65%	20 to 30 µg/mL	57%	72%	85%	72 µg/mL (≈ 162 µM)	22 µg/mL (≈ 49.5 µM)	significantly higher concentrations
